We go through one compound from patent publication US20200384188A1, “SYSTEMS, DEVICES, FORMULATIONS AND METHODS FOR CONTROLLED DRUG DELIVERY” (priority 2017, published 2020).

This experiment deals with male Sprague-Dawley rats. The experiment can be described thus: Writhing test (acetic acid-induced abdominal spasm). Format: in vivo, rat. Here is the method:
In the abdominal spasm (acetic acid-induced writhing) test, acetic acid is injected into the peritoneal cavity where it directly activates nociceptors and results in an abdominal writhing response. This writhing response is characterized by contraction of abdominal muscles followed by an extension of the hind limbs (Collier et al., 1968). This pain-behavior is considered reflexive and evidence of visceral pain associated with visceral chemoreceptors (Hammond, 1989). […] It is widely accepted that this model can be used as a screening method to determine the effects of drugs on inflammatory induced nociception (Vogel et al., 1997; Chiba et al., 2008). Although it can be used as a screening tool, it is unclear as to which clinical conditions the use of a chemical irritant represents (Gregory et al., 2013).
Eighteen male Sprague-Dawley rats were obtained from Charles River, Margate, United Kingdom, and were used for dosing. Animals weighed between 319 and 419 g on the day of dosing. Eight male Han Wister rats were obtained from Charles River, Margate, United Kingdom and used for Group 4. Animals weighed between 381 and 504 g on the day of dosing. The animals were assessed according to Table 1.
Animals were dosed subcutaneously via a motorized insulin pump.
At 1 hour post administration of ketamine, each animal was administered a 1 mL intraperitoneal injection of 1% acetic acid. Animals were immediately placed into individual observation chambers, and the number of abdominal spasms elicited over the subsequent 25-minute period was recorded.
Comparisons were made to background data.

Molecules are shown by their SMILES. “And” between values parts separate entries of the source, which are not always exact repeats. Identical values can stand only once.

`CNC1(c2ccccc2Cl)CCCCC1=O` (stereo not drawn) [ketamine]: the “Number of acetic acid-induced Abdominal Spasms, individual animals” value (50 mg/kg sc, 1 hour after ketamine, animals R0201-R0206) is 0 and 4 and 3 and 5 and 1 and 8. Also, where the note is “ketamine infusion versus baseline of 29/25 min”, the “reduction of elicited spasms from baseline values” came out at 86%. Further, under “ketamine infusion, baseline 29/25 min”, the “number of elicited spasms, average” value is 4 /25 min.
